pKi: −log10 of the molar value.

One assay concerns the target D(2) dopamine receptor (Rattus norvegicus, UniProt P61169). The experiment in a line: Displacement of [3H]nemonapride from rat dopamine D2 receptor. (In a radioligand displacement assay an active substance lowers the binding of a labelled ligand.)
Another assay deals with D(1A) dopamine receptor (Rattus norvegicus, UniProt P18901). As to the kind of experiment: Displacement of [3H]SCH-23390 from rat dopamine D1 receptor.
For assay [1], the target named is T1, 5-hydroxytryptamine receptor 1A (Rattus norvegicus, UniProt P19327).
T1 sequence (P19327 whole entry): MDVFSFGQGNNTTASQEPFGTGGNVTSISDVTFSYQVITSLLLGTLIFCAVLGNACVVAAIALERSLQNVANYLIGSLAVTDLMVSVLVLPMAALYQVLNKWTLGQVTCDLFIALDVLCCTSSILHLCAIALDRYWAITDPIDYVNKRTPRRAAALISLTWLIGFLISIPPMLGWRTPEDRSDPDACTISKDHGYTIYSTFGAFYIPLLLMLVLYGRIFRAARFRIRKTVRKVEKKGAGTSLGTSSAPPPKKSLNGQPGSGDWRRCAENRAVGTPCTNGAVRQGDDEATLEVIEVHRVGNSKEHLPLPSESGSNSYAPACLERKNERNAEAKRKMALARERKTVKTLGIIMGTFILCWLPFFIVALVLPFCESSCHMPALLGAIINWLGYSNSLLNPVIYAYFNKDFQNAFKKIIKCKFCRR
As to the kind of experiment: Displacement of [3H]8-OH-DPAT from rat 5HT1A receptor.

The target of assay [2] is 5-hydroxytryptamine receptor 2A (Rattus norvegicus, UniProt P14842). As to the kind of experiment: Displacement of [3H]ketanserin from rat 5HT2A receptor.
Sequence of 5-hydroxytryptamine receptor 2A (P14842 whole entry): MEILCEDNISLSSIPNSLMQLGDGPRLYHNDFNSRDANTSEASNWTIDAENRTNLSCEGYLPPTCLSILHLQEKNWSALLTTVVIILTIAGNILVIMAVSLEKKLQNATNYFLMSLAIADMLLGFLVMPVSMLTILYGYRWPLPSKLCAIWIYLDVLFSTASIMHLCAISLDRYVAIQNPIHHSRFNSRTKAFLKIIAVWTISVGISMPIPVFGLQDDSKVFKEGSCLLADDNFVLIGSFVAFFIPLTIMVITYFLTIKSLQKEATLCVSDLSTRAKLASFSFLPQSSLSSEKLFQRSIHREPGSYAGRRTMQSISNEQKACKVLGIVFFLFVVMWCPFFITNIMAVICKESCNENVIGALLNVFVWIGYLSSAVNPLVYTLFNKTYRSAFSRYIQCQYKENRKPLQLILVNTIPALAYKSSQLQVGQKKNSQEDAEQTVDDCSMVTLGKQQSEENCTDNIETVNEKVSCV
The species entered for another assay is Rattus norvegicus. The experiment in a line: Selectivity for rat 5HT1A over rat 5HT2A.

Sequence of D(2) dopamine receptor (P61169 whole entry): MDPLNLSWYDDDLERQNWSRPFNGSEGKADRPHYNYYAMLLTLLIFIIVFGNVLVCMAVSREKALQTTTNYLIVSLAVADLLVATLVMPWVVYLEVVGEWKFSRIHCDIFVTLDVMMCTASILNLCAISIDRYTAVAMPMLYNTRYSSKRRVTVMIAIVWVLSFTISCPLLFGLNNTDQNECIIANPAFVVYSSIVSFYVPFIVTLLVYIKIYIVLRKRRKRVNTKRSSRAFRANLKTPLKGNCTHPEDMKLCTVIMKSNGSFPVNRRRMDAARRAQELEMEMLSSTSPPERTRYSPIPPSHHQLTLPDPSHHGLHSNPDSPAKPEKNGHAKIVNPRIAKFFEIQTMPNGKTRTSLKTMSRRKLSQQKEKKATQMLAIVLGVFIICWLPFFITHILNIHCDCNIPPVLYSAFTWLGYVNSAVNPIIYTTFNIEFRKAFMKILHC
Sequence of D(1A) dopamine receptor (P18901 whole entry): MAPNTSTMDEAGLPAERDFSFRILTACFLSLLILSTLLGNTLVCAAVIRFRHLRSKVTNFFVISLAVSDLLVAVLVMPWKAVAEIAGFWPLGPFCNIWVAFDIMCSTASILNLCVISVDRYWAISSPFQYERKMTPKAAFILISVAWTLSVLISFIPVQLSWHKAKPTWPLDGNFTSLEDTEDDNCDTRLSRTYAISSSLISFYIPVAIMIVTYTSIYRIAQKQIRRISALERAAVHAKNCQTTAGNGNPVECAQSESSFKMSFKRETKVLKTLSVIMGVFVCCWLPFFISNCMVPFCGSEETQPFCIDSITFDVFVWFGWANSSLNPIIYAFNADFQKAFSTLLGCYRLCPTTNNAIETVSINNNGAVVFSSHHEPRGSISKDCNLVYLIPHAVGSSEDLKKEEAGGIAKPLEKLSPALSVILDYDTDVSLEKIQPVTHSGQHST

The term pKi denotes the Ki on a negative log10 scale, so that one unit is a factor of ten. `CCCN1CCc2cccc3c2[C@H]1Cc1ccc(CO)c(O)c1-3`: the pKi is 5.22 on D(2) dopamine receptor, 5.70 at D(1A) dopamine receptor and 6.43 in assay [1].

In the case of `COc1cc2c3c(c1)-c1c(ccc(C)c1O)C[C@H]3N(C)CC2`, the pKi at D(2) dopamine receptor was 5.42; on D(1A) dopamine receptor it was 5.75; in assay [1], 7.67; in assay [2], 6.57. For the same compound, the Ratio Ki in the assay filed under Rattus norvegicus was determined as 108.

For `CN1CCc2cccc3c2[C@H]1Cc1ccc(CO)c(O)c1-3`, the pKi at D(2) dopamine receptor is 5.15; at D(1A) dopamine receptor it was 5.86; in assay [1] it was 8.62; in assay [2] it was 6.86. For the same compound, the Ratio Ki in the assay filed under Rattus norvegicus was found to be 57.

In the case of `Cc1ccc2c(c1O)-c1cccc3c1[C@@H](C2)N(C)CC3`, the pKi was 4.94 at D(2) dopamine receptor, 5.02 on D(1A) dopamine receptor and 6.67 in assay [1].

Consider `CCCN1CCc2cc(OC)cc3c2[C@H]1Cc1ccc(C)c(O)c1-3`, for which the pKi on D(2) dopamine receptor is 5.87; at D(1A) dopamine receptor, 5.55; in assay [1], 6.32.

The values are drawn from ChEMBL document CHEMBL1149544, “R-(-)-N-alkyl-11-hydroxy-10-hydroxymethyl- and 10-methyl-aporphines as 5-HT1A receptor ligands” (Bioorg Med Chem Lett, 2007).
